Measurements published in US7205314B2, “Compounds for the treatment of dementia related diseases” (AstraZeneca AB, priority 2001, dated 2007).

COCCOc1ccc2c(C3C(=O)Nc4ccc(C#N)cc43)nccc2c1 (stereo not shown) [Example 3, 3-[6-(2-Methoxyethoxy)isoquinolin-1-yl]-2-oxo-2,3-dihydro-1H-indole-5-carbonitrile]
melting point: 214 to 219 °C
